The results in this text go back to US4034111A, “Compositions of and new uses for N-acylanilinobutyric acids” (Byk Gulden Lomberg Chemische Fabrik GmbH, priority 1974, dated 1977).

The test system of assay [1] is circulation of blood in internal organs (liver, pancreas). Briefly: Blood circulation through internal organs (liver, pancreas). Format: in vivo. Particulars: Felis catus, iv; cat, i.v. administration, as sodium salt; read-out: Increase in circulation of blood in internal organs (liver, pancreas), effective of. The method, then: 4. The blood circulation through the liver was determined by the arterial blood supply (Art. hepatica) along the lines of the method described by Scholtholt (Habilitationsschrift, faculty of medicine, University of Dusseldorf (1969) "Experimental studies with regard to the blood circulation through the liver").

The test system of the next assay is heart force of the heart. Put plainly: Heart force (left ventricle pressure course) in narcotized cats. Format: in vivo. Particulars: Felis catus, iv; cat, i.v. administration, as sodium salt; read-out: Increase in heart force of the heart, effective of. Here is the method: 3. The influence of the acylated anilinocarboxylic acids on heart force was determined along the lines of the method of W. Kroneberg et al. [Arzneimittelforschung, 22, 2 (1972)] by determination of the pressure course (isometrically) and pressure increase in the left heart ventricle upon intraveneous administration of the substance to narcotized cats.

The next assay has as its system stomach ulcers. Briefly: Anti-ulcerogenity: suppression of acetylsalicylic acid-induced stomach ulcers in rats. Conditions: 24 h, rat, oral, 30 min before 200 mg/kg acetylsalicylic acid, as sodium salt; for ED100: read-out: Suppression of the formation of stomach ulcers by 100 % (dose); for ED50: read-out: Suppression of the formation of stomach ulcers by 50% (dose). Type of assay: in vivo, rat (Sprague-Dawley, female). The method, then:
2. Anti-ulcerogenity was determined according to the method described in German Offenlegungsschrift DT-OS 2,118,200. Female Sprague-Dawley rats weighing about 200 g were kept on empty stomach for 24 hours. Then the compounds to be tested were administered orally in the form of their sodium salts in aqueous solution. After 30 minutes 200 mg/kg acetylsalicyclic acid (in 10 ml/kg of an 1% tylose suspension) were administered to cause stomach ulcers. Control groups received the corresponding amount of water instead of the sodium salt solutions. The ulcus rate was determined microscopically 24 hours after the administration of acetylsalicyclic acid.

The test system of assay [2] is Pancreas secretion. Put plainly: Pancreas secretion (rat), i.d. administration. Format: in vivo. Conditions: intraduodenal, as sodium salt; for ED (50% increase): Rattus norvegicus, read-out: Increase in pancreas secretion by 50 % maximum (dose); for minimal effective dose: read-out: Increase in pancreas secretion: significantly effective of [ ]. Here is the method: (§1) 1. Pancreas secretion (rat and cat) was examined along the lines of the method described by C. J. Dockray [J. Physiol., 225, 679, (1972)] for the rat and of that described by R. M. Case et al [J. Physiol., 223, 669, (1972)] for the cat.
(§2) The pancreas secretion and the bile of narcotized rats (female, 250 to 300 g, stomachs not empty; narcosis: 5 ml/kg of a 25 % urethane solution= 1.25 g/kg i.m.) and cats (both sexes, stomachs empty, 3 to 4 kg; narcosis: laughing gas and 60 mg/kg i.p. chloralose and 120 mg/kg i.p. urethane; permanent infusion of 0.4 to 2 E/kg/hour secretine= 1 to 6 ml/animal/hour,pylorus ligature) were separately transferred to the outside. After an initial period of about 2 hours compounds to be examined were administered intravenously to some and intraduodenally to other animals (volume of injection rat/cat 1 ml/kg). The volume and, respectively, the protein content (amylase, lipase, trypsine) of the fraction for 30 minutes and 15 minutes, respectively, were determined by conventional methods (Boehringer Test Combination 15899).

The subject of assay [3] is serum enzyme increase (GOT/GPT) after galactosamine. Briefly: Anti-hepatotoxic action: liver damage due to galactosamine, serum enzymes GOT/GPT. Format: in vivo, rat (Sprague-Dawley, male). Conditions: rat, oral, as sodium salt, serum 24 hours after 200 mg/kg d-galactosamine hydrochloride i.p.; read-out: Anti-hepatotoxic action: inhibition of serum enzyme increase by 25 % (GOT/GPT), damage due to galactosamine (dose). Here is the method:
(§3) 5. The determination of the anti-hepatotoxic and hepatotropic effect, respectively, was carried out by damaging the liver with allyl alcohol or galactosamine.
(b) Damaging, due to galactosamine (galactosamine hepatitis) was carried out in accordance with the method described in Arzneimittelforschung 23 Nr. 1a, 159 (1973): Male Sprague-Dawley rats (220 to 300 g) received 200 mg/kg d-galactosamine hydrochloride (Merck, Darmstadt, article no. 4085) intraperitoneally (injection volume 2 ml/kg) 1 hour after oral administration of the compounds to be tested. 24 hours after the damage due to galactosamine a blood sample was taken from the vena orbitalis with slight ether narcosis. The serum enzymes were determined as described under a.

Assay [4] deals with Pancreas secretion. Put plainly: Pancreas secretion (cat), pancreas liquid and protein (enzyme). Format: in vivo. Particulars: Felis catus, as sodium salt. Here is the method: as §1, §2
Assay [5] has as its system serum enzyme increase (GOT/GPT) after allyl alcohol. Briefly: Anti-hepatotoxic action: liver damage due to allyl alcohol, serum enzymes GOT/GPT. Particulars: rat, oral, as sodium salt, serum 18 hours after allyl alcohol; read-out: Anti-hepatotoxic action: inhibition of serum enzyme increase by 25 % (GOT/GPT), damage due to allyl alcohol (dose). Type of assay: in vivo, rat (Sprague-Dawley, female). The method, then: as §3
(a) Damaging due to allyl alcohol was carried out in accordance with the method of Renker et al. [Arzneimittelforschung, 22, 1009 (1972)] and of H. Rauen and Schriewer [Arzneimittelforschung, 21, 1194 (1971)]: female Sprague-Dawley-rats (250 to 300 g) received 3 ml/kg of 1.25 % allyl alcohol solution orally […] the compounds to be tested and the solvent (control) had also been administered orally. 18 hours after the damage due to allyl alcohol a blood sample was taken from the tail (0.5 to 0.7 ml) with slight ether narcosis. The serum enzymes GOT (glutamate oxalacetate transaminase) and GPT (glutamate pyruvate transminase) were determined with the help of the Boehringer Test Combination (No. 15955/56)-- micromethod.

Like-named read-outs stand apart in the source and are kept apart here.

On to `Cc1cccc(C)c1N(CCCC(=O)O)C(=O)c1ccccc1Cl` [(8), N-(o-chlorobenzoyl)-γ-(2,6-dimethylanilino)butyric acid], for which the minimal effective dose in assay [1] came out at 1 mg/kg; with heart force of the heart, 1 mg/kg; in the assay with Pancreas secretion [2] it was 0.01 mg/kg. Further, the ED100 in the assay on stomach ulcers was approximately 30 mg/kg. Also, the ED (50% increase) in the assay on Pancreas secretion [2] was approximately 1 mg/kg. In assay [3], the ED25 was approximately 20 mg/kg.

As for `COc1ccc(N(CCCC(=O)O)C(=O)c2ccc(Cl)cc2)cc1` [(3), N-(p-chlorobenzoyl)-γ-(p-anisidino)butyric acid], the minimal effective dose in assay [1] was 1 to 5 mg/kg; with heart force of the heart it was 1 mg/kg; in the assay on Pancreas secretion [2], 0.05 mg/kg. The ED50 in the assay on stomach ulcers was 1 to 5 mg/kg. The ED100 in the assay with stomach ulcers was approximately 10 mg/kg. Besides, the ED (50% increase) in the assay with Pancreas secretion [2] is 1 to 5 mg/kg. For the same molecule, the ED25 in assay [3] was approximately 20 mg/kg; in assay [5], 5 to 10 mg/kg. Moreover, the ED (100% increase) with Pancreas secretion [4] (intraduodenal, i.d. administration, read-out: Increase in pancreas secretion by 100 % maximum: pancreas liquid (dose)) is approximately 10 mg/kg; in the assay with Pancreas secretion [4] (intraduodenal, i.d. administration, read-out: Increase in pancreas secretion by 100 % maximum: protein (enzyme) (dose)), approximately 1 mg/kg; in the assay on Pancreas secretion [4] (iv, i.v. administration, read-out: Increase in pancreas secretion by 100 % maximum: protein (enzyme) (dose)), less than 10 mg/kg.

As to `Cc1cccc(C)c1N(CCCC(=O)O)C(=O)c1ccc(Cl)cc1` [(9), N-(p-chlorobenzoyl)-γ-(2,6-dimethylanilino)butyric acid], the results for the minimal effective dose (in assay [1]; in the assay on heart force of the heart; with Pancreas secretion [2]) were 1 mg/kg, 1 to 5 mg/kg and 0.01 mg/kg, respectively. Also, the ED50 in the assay on stomach ulcers was in the range of 0.5 to 1 mg/kg. Besides, the ED100 in the assay with stomach ulcers was in the range of 1 to 5 mg/kg. Moreover, the ED (50% increase) with Pancreas secretion [2] was in the range of 0.2 to 0.5 mg/kg. Also, the ED25 in assay [3] is 10 to 20 mg/kg; in assay [5] it was approximately 10 mg/kg.

On to `COc1ccc(N(CCCC(=O)O)C(=O)c2ccc(Cl)cc2)cc1OC` [(7), N-(p-chlorobenzoyl)-γ-(3,4-dimethoxyanilino)butyric acid], for which the minimal effective dose in assay [1] was 1 mg/kg; with heart force of the heart it was 1 to 5 mg/kg; with Pancreas secretion [2], approximately 0.1 mg/kg. Also, in the assay on stomach ulcers, the ED100 was approximately 5 mg/kg. Besides, in the assay with Pancreas secretion [2], the ED (50% increase) was approximately 1 mg/kg. Also, the figures for the ED25 in assay [3] and in assay [5] were approximately 20 mg/kg and 50 mg/kg, respectively.

`O=C(O)CCCN(C(=O)c1ccc(Cl)cc1)c1ccc(O)cc1` [(11), N-(p-chlorobenzoyl)-γ-(p-hydroxyanilino)butyric acid]: the minimal effective dose in assay [1] is 1 to 5 mg/kg; in the assay with heart force of the heart it was approximately 1 mg/kg; in the assay on Pancreas secretion [2] it was 0.5 mg/kg. Further, in the assay with Pancreas secretion [2], the ED (50% increase) was approximately 0.7 mg/kg. Further, the ED25 in assay [5] was approximately 10 mg/kg.

As for `CC(=O)N(CCCC(=O)O)c1cccc(Cl)c1` [(12), N-acetyl-γ-(m-chloroanilino)butyric acid], the minimal effective dose in the assay with heart force of the heart was found to be 2.5 mg/kg. Further, in the assay on Pancreas secretion [2], the ED (50% increase) is approximately 1 mg/kg and the minimal effective dose worked out at 0.1 mg/kg.

`CCOc1ccc(N(CCCC(=O)O)C(=O)c2ccc(Cl)cc2)cc1` [(4), N-(p-chlorobenzoyl)-γ-(p-phenetidino)butyric acid]: the results for the minimal effective dose (in assay [1]; in the assay with heart force of the heart; with Pancreas secretion [2]) were 1 to 5 mg/kg, 1 mg/kg and 0.05 mg/kg, respectively. Moreover, the ED100 in the assay on stomach ulcers is approximately 15 mg/kg. Also, the ED (50% increase) in the assay on Pancreas secretion [2] lay within 0.1 to 0.5 mg/kg. Also, the ED25 in assay [3] and in assay [5] was approximately 10 mg/kg throughout.

For `COc1ccc(N(CCCC(=O)O)C(=O)c2ccccc2)cc1` [(2), N-benzoyl-γ-(p-anisidino)butyric acid], the ED100 in the assay on stomach ulcers was found to be 1.5 mg/kg. For the same molecule, in the assay on Pancreas secretion [2], the ED (50% increase) is approximately 0.2 mg/kg and the minimal effective dose is 0.05 mg/kg. In assay [3], the ED25 was approximately 50 mg/kg. Further, the ED25 in assay [5] lay within 5 to 10 mg/kg.
